From patent US11691951B2 (Curtana Pharmaceuticals, Inc., priority 2015, dated 2023)

Test system: GBM4 cells (human glioblastoma neurosphere cell culture)
Assay: GBM4 viability assay (Cell Titer Glo luminescence, 3 days)
Type: cell-based
Conditions: 72 h, 3 days incubation
Method: Example 283: GBM4 and GBM8 Viability Assay
Cell culture medium was prepared from a NSA proliferation kit (Neurocult) and NeuroCult supplements (Stemcell Tech Cat. #05751) and treated with 20 μL of 10 μg/mL rh EGF, 10 μL of 10 μg/mL rh bFGF and 10 μL of 0.2% Heparin. In this medium, human glioblastoma cells were cultured in ultra-low attachment tissue culture flasks until 1×10^6 cells ml was achieved (GBM4 and GBM8 are distinct neurosphere cell cultures derived from these human patient tissues). GBM4 and GBM8 cells were dissociated and 10 mL of media containing 4000 human glioblastoma cells per 90 uL were transferred to an ultra-low binding 96-well plate and incubated at 37° C. overnight. On the following day, 10 μL of a 1% DMSO solution of test compound in assay medium was added to wells containing the cell suspension and the mixture incubated at 37° C. for 3 days. At this time, the plate was removed from the incubator and allowed to reach room temperature. After about 30 minutes, 50 μL of Cell Titer Glo solution was added to each well and the plate shaken for 1 minute at low speed. After 10 minutes luminescence was recorded using a Tecan Safire2 reader.
Reduction in luminescence compared to DMSO only control wells was used to determine the percentage inhibition of cell growth. IC50s were calculated using the % inhibition of luminescence for serial dilutions of compounds fitted to a 4-parameter fit within the Prism (San Diego) curve fitting program.

SMILES | IC50 [µM]
Cc1cc(N2CCN(C)CC2)nc(NC(=O)Nc2ccc(Cl)c(Cl)c2)n1 [Compound 5, 1-(3,4-dichlorophenyl)-3-{6-methyl-4-(4-methyl-piperazin-1-yl-)pyrimidin-2-yl}-urea] | 10 to 30

Test system: GBM8 cells (human glioblastoma neurosphere cell culture)
Assay: GBM8 viability assay (Cell Titer Glo luminescence, 3 days)
Type: cell-based
Conditions: 72 h, 3 days incubation
Outline: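 Patient-derived neurosphere cells (4000/well) in NeuroCult medium with rh EGF, rh bFGF and heparin, ultra-low attachment, dosed after overnight settling; 3 days at 37 °C. CellTiter-Glo luminescence versus DMSO controls gave % growth inhibition; IC50 from 4-parameter fit of serial dilutions.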

SMILES | IC50 [nM]
Cc1ccc(NC(=O)Nc2nc(C)cc(NCC3CCCNC3)n2)cc1 (stereo not shown) [Compound 249, 1-(4-methyl-6-((piperidin-3-ylmethyl)amino)pyrimidin-2-yl)-3-(p-tolyl)urea] | 1000 to 10000
Cc1cc(NCCCN(C)C)nc(NC(=O)Nc2ccc(C)c(C)c2)n1 [Compound 251, 1-(4-((3-(dimethylamino)propyl)amino)-6-methylpyrimidin-2-yl)-3-(3,4-dimethylphenyl)urea] | < 1000
Cc1cc(NCCCN)nc(NC(=O)Nc2ccc(C)c(C)c2)n1 [Compound 253] | < 1000
Cc1cc(NCCCCN)nc(NC(=O)Nc2ccc(C)c(C)c2)n1 [Compound 254] | < 1000
Cc1cc(NCCCCO)nc(NC(=O)Nc2ccc(C)c(C)c2)n1 [Compound 255] | < 1000
Cc1cc(NCCCCN(C)C)nc(NC(=O)Nc2ccc(C)c(C)c2)n1 [Compound 256] | < 1000
Cc1cc(NCC2CCCN(C)C2)nc(NC(=O)Nc2ccc(C)c(C)c2)n1 (stereo not shown) [Compound 258] | 1000 to 10000
Cc1cc(NCCO)nc(NC(=O)Nc2ccc(C)c(C)c2)n1 [Compound 259] | < 1000
Cc1cc(NCCOCCO)nc(NC(=O)Nc2ccc(C)c(C)c2)n1 [Compound 260] | 1000 to 10000
CCCNc1cc(C)nc(NC(=O)Nc2ccc(C)c(C)c2)n1 [Compound 261] | < 1000
Cc1cc(NCC(C)O)nc(NC(=O)Nc2ccc(C)c(C)c2)n1 (stereo not shown) [Compound 262] | < 1000
Cc1cc(NCC(O)CO)nc(NC(=O)Nc2ccc(C)c(C)c2)n1 (stereo not shown) [Compound 264] | < 1000
Cc1cc(NCCCc2cnc[nH]2)nc(NC(=O)Nc2ccc(C)c(C)c2)n1 [Compound 266] | < 1000
CNCCNc1cc(C)nc(NC(=O)Nc2ccc(C)c(C)c2)n1 [Compound 268, 1-(3,4-dimethylphenyl)-3-(4-methyl-6-((2-(methylamino)ethyl)amino)pyrimidin-2-yl)urea] | 1000 to 10000
CNCCCNc1cc(C)nc(NC(=O)Nc2ccc(C)c(C)c2)n1 [Compound 269] | < 1000
CNCCCCNc1cc(C)nc(NC(=O)Nc2ccc(C)c(C)c2)n1 [Compound 270] | < 1000
Cc1cc(NCC2CCCNC2)nc(NC(=O)Nc2ccc(C)c(C)c2)n1 (stereo not shown) [Compound 271] | < 1000
CC(=O)NCCCNc1cc(C)nc(NC(=O)Nc2ccc(Cl)c(Cl)c2)n1 [Compound 272, N-(3-((2-(3-(3,4-dichlorophenyl)ureido)-6-methylpyrimidin-4-yl)amino)propyl)acetamide] | 1000 to 10000
CC(=O)NCCCNc1cc(C)nc(NC(=O)Nc2ccc(OC(F)(F)F)cc2)n1 [Compound 273, N-(3-((6-methyl-2-(3-(4-(trifluoromethoxy)phenyl)ureido)pyrimidin-4-yl)amino)propyl)acetamide] | < 1000
CC(=O)NCCNc1cc(C)nc(NC(=O)Nc2ccc(OC(F)(F)F)cc2)n1 [Compound 274, N-(3-((6-methyl-2-(3-(4-(trifluoromethoxy)phenyl)ureido)pyrimidin-4-yl)amino)ethyl)acetamide] | < 1000
COc1ccc(NC(=O)Nc2nc(C)cc(NCCCNC(C)=O)n2)cc1 [Compound 275, N-(3-((2-(3-(4-methoxyphenyl)ureido)-6-methylpyrimidin-4-yl)amino)propyl)acetamide] | < 1000
COc1ccc(NC(=O)Nc2nc(C)cc(NCCNC(C)=O)n2)cc1 [Compound 276, N-(2-((2-(3-(4-methoxyphenyl)ureido)-6-methylpyrimidin-4-yl)amino)ethyl)acetamide] | < 1000
CC(=O)NCCNc1cc(C)nc(NC(=O)Nc2cccc(C(F)(F)F)c2)n1 [Compound 277] | 1000 to 10000
CC(=O)NCCCNc1cc(C)nc(NC(=O)Nc2ccc(F)c(Cl)c2)n1 [Compound 278] | < 1000
Cc1cc(NCCNS(C)(=O)=O)nc(NC(=O)Nc2ccc(OC(F)(F)F)cc2)n1 [Compound 279] | < 1000
Cc1cc(NCCCN(C)C)nc(NC(=O)Nc2ccc3c(c2)OCO3)n1 [Compound 281, 1-(benzo[d][1,3]dioxol-5-yl)-3-(4-((3-(dimethylamino)propyl)amino)-6-methylpyrimidin-2-yl)urea] | 1000 to 10000

SMILES | IC50 [nM]
Cc1cc(NCCCN)nc(NC(=O)Nc2ccc3c(c2)OCO3)n1 [Compound 282] | < 1000
Cc1cc(NCCN)nc(NC(=O)Nc2ccc3c(c2)OCO3)n1 [Compound 283] | < 1000
Cc1cc(NCCN(C)C)nc(NC(=O)Nc2ccc3c(c2)OCO3)n1 [Compound 284] | 1000 to 10000
CCNc1cc(C)nc(NC(=O)Nc2ccc3c(c2)OCO3)n1 [Compound 285] | < 1000
CCCNc1cc(C)nc(NC(=O)Nc2ccc3c(c2)OCO3)n1 [Compound 286] | < 1000
CNCCNc1cc(C)nc(NC(=O)Nc2ccc3c(c2)OCO3)n1 [Compound 288, 1-(benzo[d][1,3]dioxol-5-yl)-3-(4-methyl-6-((2-(methylamino)ethyl)amino)pyrimidin-2-yl)urea] | < 1000
CNCCCNc1cc(C)nc(NC(=O)Nc2ccc3c(c2)OCO3)n1 [Compound 289, 1-(benzo[d][1,3]dioxol-5-yl)-3-(4-methyl-6-((3-(methylamino)propyl)amino)pyrimidin-2-yl)urea] | 1000 to 10000
Cc1cc(NCCCN(C)C)nc(NC(=O)Nc2ccc3c(c2)OCCO3)n1 [Compound 291, 1-(2,3-dihydrobenzo[b][1,4]dioxin-6-yl)-3-(4-((3-(dimethylamino)propyl)amino)-6-methylpyrimidin-2-yl)urea] | < 1000
Cc1cc(NCCCN)nc(NC(=O)Nc2ccc3c(c2)OCCO3)n1 [Compound 292] | < 1000
Cc1cc(NCCN)nc(NC(=O)Nc2ccc3c(c2)OCCO3)n1 [Compound 293] | 1000 to 10000
Cc1cc(NCCN(C)C)nc(NC(=O)Nc2ccc3c(c2)OCCO3)n1 [Compound 294] | < 1000
CCNc1cc(C)nc(NC(=O)Nc2ccc3c(c2)OCCO3)n1 [Compound 295] | < 1000
CCCNc1cc(C)nc(NC(=O)Nc2ccc3c(c2)OCCO3)n1 [Compound 296] | < 1000
CNCCNc1cc(C)nc(NC(=O)Nc2ccc3c(c2)OCCO3)n1 [Compound 298, 1-(2,3-dihydrobenzo[b][1,4]dioxin-6-yl)-3-(4-methyl-6-((2-(methylamino)ethyl)amino)pyrimidin-2-yl)urea] | < 1000
CNCCCNc1cc(C)nc(NC(=O)Nc2ccc3c(c2)OCCO3)n1 [Compound 299, 1-(2,3-dihydrobenzo[b][1,4]dioxin-6-yl)-3-(4-methyl-6-((3-(methylamino)propyl)amino)pyrimidin-2-yl)urea] | 1000 to 10000
Cc1cc(NCCCN(C)C)nc(NC(=O)Nc2ccc(C(C)(C)C)cc2)n1 [Compound 301, 1-(4-(tert-butyl)phenyl)-3-(4-((3-(dimethylamino)propyl)amino)-6-methylpyrimidin-2-yl)urea] | < 1000
Cc1cc(NCCN(C)C)nc(NC(=O)Nc2ccc(C(C)(C)C)cc2)n1 [Compound 302] | 1000 to 10000
Cc1cc(NCCCN)nc(NC(=O)Nc2ccc(C(C)(C)C)cc2)n1 [Compound 303] | < 1000
Cc1cc(NCCN)nc(NC(=O)Nc2ccc(C(C)(C)C)cc2)n1 [Compound 304] | < 1000
CC(=O)NCCCNc1cc(C)nc(NC(=O)Nc2ccc3c(c2)OCO3)n1 [Compound 305, N-(3-((2-(3-(benzo[d][1,3]dioxol-5-yl)ureido)-6-methylpyrimidin-4-yl)amino)propyl)acetamide] | < 1000
CC(=O)NCCNc1cc(C)nc(NC(=O)Nc2ccc3c(c2)OCO3)n1 [Compound 306, N-{2-[2-(3-benzo[1,3]dioxol-5-yl-ureido)-6-methyl-pyrimidin-4-ylamino]-ethyl}-acetamide] | 1000 to 10000
CC(=O)NCCNc1cc(C)nc(NC(=O)Nc2ccc3c(c2)OCCO3)n1 [Compound 307, N-(2-{2-[3-(2,3-dihydro-benzo[1,4]dioxin-6-yl)-ureido]-6-methyl-pyrimidin-4-ylamino}-ethyl)-acetamide] | < 1000
CC(=O)NCCCNc1cc(C)nc(NC(=O)Nc2ccc3c(c2)OCCO3)n1 [Compound 308, N-(3-{2-[3-(2,3-dihydro-benzo[1,4]dioxin-6-yl)-ureido]-6-methyl-pyrimidin-4-ylamino}-propyl)-acetamide] | < 1000
CC(=O)NCCNc1cc(C)nc(NC(=O)Nc2ccc(C(C)(C)C)cc2)n1 [Compound 309, N-(2-{2-[3-(4-tert-butyl-phenyl)-ureido]-6-methyl-pyrimidin-4-ylamino}-ethyl)-ace mid] | < 1000
CC(=O)NCCCNc1cc(C)nc(NC(=O)Nc2ccc(C(C)(C)C)cc2)n1 [Compound 310, N-(3-{2-[3-(4-tert-butyl-phenyl)-ureido]-6-methyl-pyrimidin-4-ylamino}-propyl)-acetamide] | < 1000
